Experiment [1] has as its system nitric oxide production in RAW267.7 macrophages. Put plainly: Inhibition of nitric oxide production in LPS-activated macrophages (Griess reaction). Format: cell-based, murine. The following applies: for inhibition at 12.5 µM / % inhibition of NO production: 12.5 μmol/L; for inhibition at 3.125 µM: 3.125 μmol/L; for inhibition at 3.13 µM: 3.13 μmol/L. The protocol: (§1) The anti-inflammatory effects combinations of OH-tyrosol or oleuropein and representatives of other groups of natural substances (isoflavones, catechins, phtalides, hydroxylated biphenyls) were evaluated in activated macrophages by determining the inhibition of the synthesis of nitric oxide and/or pro-inflammatory prostaglandins (PG). PGE2 plays a critical role in the inflammation process, while nitric oxide (NO) is a hallmark of inflammation in various chronic inflammatory diseases including various forms of arthritis, gastro-intestinal diseases and metabolic syndrome.
(§2) The anti inflammatory effect of compounds was tested in cellular assays using a murine macrophage indicator cell line, RAW267.7, which was purchased from American Type Culture Collection, (ATCC) and cultured in DMEM according to the protocol provided by ATCC. Cells (˜50,000/well) were seeded into flat-bottomed microtiter plates and cultured for one day. Cells were then starved in complete medium containing 0.25% FCS (D-025). After overnight culture, medium was removed and replaced by 100 μL of D-025 containing the test compounds at twice the final concentration. Subsequently, 100 μL of D-025 containing 2 μg/ml LPS was added (i.e. final LPS concentration of 1 μg/ml) and the cells cultured for 24 hours. Substances were usually tested in a concentration range from 0.2 to 50 μM (or μg/ml in the case of extracts) in two-fold dilution steps. Concentrations of nitrite which was generated from nitric oxide released by cells were determined by the Griess reaction using sodium nitrite as standard (see e.g Imai et al. Biochem Biophys Res Comm, 197, 105 [1993]). Briefly, 50 μl of supernatant was mixed with Griess reagent 1 (25 μL) and Griess reagent 2 (25 μL), centrifuged and the optical density at 540 nm determined. PGE2 secreted into the cell culture medium was determined by EIA obtained from Cayman Chemicals ([…]) and used according to the manufacturer's instructions. IC50 values were calculated using a […] least-square fitting equation [y=A+((B−A)/(1+((C−x)^D))] for best-fit curves (Excel fit software program).
(§3) In a methodological approach that was similar to that described for Example 1, the synergistic effect of lycopene, resveratrol and OH-tyrosol was tested on the inflammatory response. Dose-dependent effects of each substance on the production of nitric oxide or PGE2 in macrophages were determined.

The test system of experiment [2] is PGE2 production in RAW267.7 macrophages. In words: Inhibition of PGE2 production in LPS-activated macrophages (EIA). Format: cell-based, murine. On the procedure:
as §1, §2, §3

Where [3] appears, read: Mus musculus, Macrophage, single substance, RAW267.7, LPS 1 μg/ml, 24 hours, read-out: IC50 Nitric Oxide.
[4] abbreviates: Mus musculus, Macrophage, single substance, RAW267.7, LPS 1 μg/ml, 24 hours, read-out: IC50 PGE2.
The mark [5] stands for this setting: Mus musculus, Macrophage, read-out: % inhibition of NO production.
[6] abbreviates: Mus musculus, Macrophage, Example 2, read-out: IC50 of pure compound (NO production).
[7] abbreviates: Mus musculus, Macrophage, Example 2, read-out: IC50 of pure compound (PGE2 production).
[8] abbreviates: Mus musculus, Macrophage, Example 2, read-out: % inhibition of NO production.

Where two headings read alike, the source gives them in different places.

For the compound `O=c1c(-c2ccc(O)cc2)coc2cc(O)cc(O)c12` [Genistein, 4′,5,7-trihydroxyisoflavone], in experiment [1] (Mus musculus, Macrophage, 25 μmol/L, read-out: % inhibition of NO production), the inhibition at 25 µM worked out at 40%. In addition, the IC50 amounted to 37 ± 2 µM in experiment [1] (setting [3]) and 4.6 ± 0.6 µM in experiment [2] (setting [4]).
Turning to `C=CCc1ccc(O)c(-c2ccc(O)c(CC=C)c2)c1` [Honokiol, 3′,5-Diallyl-2,4′-biphenyldiol], the inhibition at 12.5 µM in experiment [1] (setting [5]) stood at 66%. In addition, the figures for the IC50 in experiment [1] (setting [3]) and in experiment [2] (setting [4]) were 8 ± 1 µM and 1 ± 0.2 µM, respectively.
With `CCC/C=C1\OC(=O)C2=C1CCC=C2` [Ligustilide, ligustilide], in experiment [1] (setting [5]), the inhibition at 3.125 µM worked out at 28%. For the same compound, the inhibition at 12.5 µM in experiment [1] (setting [5]) was 38%. The IC50 in experiment [1] (setting [3]) worked out at 15 ± 1 µM; in experiment [2] (setting [4]), 10 ± 2 µM.
In the case of `CC(C)=CCC/C(C)=C/C=C/C(C)=C/C=C/C(C)=C/C=C/C=C(C)/C=C/C=C(C)/C=C/C=C(\C)CCC=C(C)C` [Lycopene (Ly), ψ,ψ carotene], in experiment [1] (Mus musculus, Macrophage, Example 2, 0.5 μmol/L, read-out: % inhibition of NO production), the inhibition at 0.5 µM was 4%. The IC50 in experiment [1] (setting [6]) and in experiment [2] (setting [7]) was above 8 µM each time. In experiment [1] (at <8 μmol/L), the “anti-inflammatory effect (production of nitric oxide or PGE2 in macrophages)” value is “no anti-inflammatory effect”. Besides, the inhibition at 0.25 µM in experiment [2] (Mus musculus, Macrophage, Example 2, 0.25 μmol/L) is -5%.
For `OCCc1ccc(O)c(O)c1` [OH-Tyrosol, 2-(3,4-dihydroxyphenyl)-ethanol], the “% inhibition of NO production” value in experiment [1] is 33%. The inhibition at 6.25 µM in experiment [1] (Mus musculus, Macrophage, 6.25 μmol/L, read-out: % inhibition of NO production) stood at 7%. Further, the inhibition at 3.13 µM in experiment [1] (setting [8]) was -4%. Besides, the IC50 stood at 24.1 µM in experiment [1] (setting [6]), 28 ± 2 µM in experiment [1] (setting [3]), 22.7 µM in experiment [2] (setting [7]) and 24 ± 3 µM in experiment [2] (setting [4]).
Consider `C/C=C1/[C@H](O[C@@H]2O[C@H](CO)[C@@H](O)[C@H](O)[C@H]2O)OC=C(C(=O)OC)[C@H]1CC(=O)OCCc1ccc(O)c(O)c1` [Oleuropein, oleuropein], for which, in experiment [1] (setting [5]), the inhibition at 3.125 µM came to 2% and the inhibition at 12.5 µM turned out to be 8%. Further, in experiment [1] (setting [3]), the IC50 was determined as 52 ± 5 µM. The IC50 in experiment [2] (setting [4]) was determined as 60 ± 10 µM.
Take `Oc1ccc(/C=C/c2cc(O)cc(O)c2)cc1` [Resveratrol, (trans)-resveratrol]: the inhibition at 3.13 µM in experiment [1] (setting [8]) was -2%. The IC50 in experiment [1] (setting [6]) came to 19.3 µM; in experiment [1] (setting [3]) it was 31 ± 2 µM; in experiment [2] (setting [7]), 23.4 µM; in experiment [2] (setting [4]), 24 ± 2 µM.
As for (−)-epigallocatechin gallate [EGCG], in experiment [1], the “% inhibition of NO production” value stood at 12%. For the same compound, the IC50 in experiment [1] (single substance, RAW267.7, LPS 1 μg/ml, 24 hours, read-out: IC50 Nitric Oxide) was 33 ± 2 µM; in experiment [2] (single substance, RAW267.7, LPS 1 μg/ml, 24 hours, read-out: IC50 PGE2) it was 35 ± 3 µM.
